Results on 22 compounds are retold here after patent US12240840B2, “Amide-substituted heterocyclic compounds for the treatment of conditions related to the modulation of IL-12, IL-23 and/or IFN-alpha” (BRISTOL-MYERS SQUIBB COMPANY, priority 2018, dated 2025).

Where two headings read alike, the source gives them in different places.

The experiment has as its system IFNα-induced pSTAT5 (pY694) in CD3 positive cells of human whole blood. Briefly: IFNα-Induced STAT Phosphorylation in Human Whole Blood. In kind it is cell-based. Particulars: 1 h compound incubation, 1000 U/mL recombinant human IFNα A/D for 15 min, pSTAT5 in CD3 positive population, read-out: Human WB IFNα-Induced Stat Phosph. (IC50). In outline:
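Read-out is median fluorescence intensity of pSTAT5 (pY694) in the CD3-positive gate, by flow cytometry after fix/lyse and permeabilization. Before that, whole human blood anticoagulated with EDTA or ACD-A received compound for an hour and 1000 U/mL IFNα A/D for 15 min.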

In general, IC50 refers to the concentration that gives 50% inhibition. Take `[2H]C([2H])([2H])NC(=O)c1nnc(NC(=O)C2CC2)cc1Nc1cc(F)cc(-c2cc(C(=O)N3CCN(C)CC3)n(C)n2)c1OC` [Example 497]: for the setting “Homo sapiens”, the IC50 turned out to be 110 nM. The same measure, in the same setting: under `[2H]C([2H])([2H])NC(=O)c1nnc(NC(=O)C2CC2)cc1Nc1cccc(-c2nc([C@H](CO)NC(=O)COC)no2)c1OC` [Example 202] stands 1800 nM.

In the case of `[2H]C([2H])([2H])NC(=O)c1cnc(NC(=O)C2CC2)cc1Nc1cccc(-c2cc(C(=O)N(C)C)n(C)n2)c1OC` [Example 486], the IC50 (Homo sapiens) was 60 nM. Turning to `[2H]C([2H])([2H])NC(=O)c1nnc(NC(=O)C2CC2)cc1Nc1cccc(-c2nc([C@H](C)NS(C)(=O)=O)no2)c1OC` [Example 184], where the note is “Homo sapiens”, the IC50 amounted to 130 nM. The same measure, in the same setting: for `[2H]C([2H])([2H])NC(=O)c1nnc(NC(=O)C2CC2)cc1Nc1cc(F)cc(-c2cc(C(=O)N3C[C@@H](C)O[C@@H](C)C3)n(C)n2)c1OC` [Example 499] the value was 180 nM; for `[2H]C([2H])([2H])NC(=O)c1nnc(NC(=O)C2CC2)cc1Nc1cccc(-c2cnn(CCO)n2)c1OC` [Example 450], 200 nM. Take `COc1c(Nc2cc(NC(=O)C3CC3)ncc2C(N)=O)cccc1-c1cnn(CCNC(=O)CC#N)n1` [Example 446]: the IC50 (Homo sapiens) came out at 270 nM. With `[2H]C([2H])([2H])NC(=O)c1nnc(NC(=O)C2CC2)cc1Nc1cccc(-c2ncc(CO)s2)c1OC` [Example 257], the IC50 (Homo sapiens) was 230 nM. For the compound `[2H]C([2H])([2H])NC(=O)c1nnc(NC(=O)C2CC2)cc1Nc1cccc(-c2cc(C(=O)N3CCNCC3)n(C)n2)c1OC` [Example 492], the IC50 (Homo sapiens) was 150 nM. `[2H]C([2H])([2H])NC(=O)c1nnc(NC(=O)C2CC2)cc1Nc1cccc(-c2cnn(CCNC(=O)CC3CCCO3)n2)c1OC` (stereo not shown) [Example 438]: where the note is “Homo sapiens”, the IC50 amounted to 2890 nM.

Consider `[2H]C([2H])([2H])NC(=O)c1cnc(NC(=O)C2CC2)cc1Nc1cc(F)cc(-c2cnn(C)n2)c1OC` [Example 453], for which the IC50 (Homo sapiens) worked out at 60 nM.

In the case of `[2H]C([2H])([2H])NC(=O)c1nnc(NC(=O)C2CC2)cc1Nc1cccc(-c2nc(C3(NC(=O)CC#N)CC3)no2)c1OC` [Example 151], the IC50 (Homo sapiens) was 1550 nM. Take `[2H]C([2H])([2H])NC(=O)c1nnc(NC(=O)C2CC2)cc1Nc1cccc(-c2cnn(CCNC(C)=O)c2)c1OC` [Example 556, 4-((3-(1-(2-acetamidoethyl)-1H-pyrazol-4-yl)-2-methoxyphenyl)amino)-6-(cyclopropanecarboxamido)-N-(methyl-d3)pyridazine-3-carboxamide]: the concentration for half-maximal inhibition (IC50) turned out to be 1070 nM. As to `[2H]C([2H])([2H])NC(=O)c1nnc(NC(=O)C2CC2)cc1Nc1cccc(-c2ncc(C(=O)NCCN3CCCC(F)C3)s2)c1OC` (stereo not shown) [Example 347], for the setting “Homo sapiens”, the IC50 stood at 13 nM. Turning to `[2H]C([2H])([2H])NC(=O)c1cnc(NC(=O)C2CC2)cc1Nc1cccc(-c2nc(CN3C[C@@H](C)O[C@@H](C)C3)no2)c1OC` [Example 210], where the note is “Homo sapiens”, the IC50 amounted to 220 nM. Regarding `[2H]C([2H])([2H])NC(=O)c1nnc(NC(=O)C2CC2)cc1Nc1cccc(-c2noc(CN3CCNCC3)n2)c1OC` [Example 35], the IC50 (Homo sapiens) came to 120 nM.

As to `[2H]C([2H])([2H])NC(=O)c1nnc(NC(=O)C2CC2)cc1Nc1cc(F)cc(-c2cc(NC(C)=O)n(C)n2)c1OC` [Example 500], the IC50 (Homo sapiens) is 370 nM.

Regarding `COC(=O)N1CCN(Cc2nc(-c3cccc(Nc4cc(N)nnc4C(N)=O)c3OC)no2)CC1` [Example 105], for the setting “Homo sapiens”, the IC50 was found to be 1830 nM. For `[2H]C([2H])([2H])NC(=O)c1nnc(NC(=O)C2CC2)cc1Nc1cccc(-c2nc(CCOC(C)(C)C)no2)c1OC` [Example 226], for the setting “Homo sapiens”, the IC50 was determined as 1160 nM. The same measure, in the same setting: for `[2H]C([2H])([2H])NC(=O)c1nnc(NC(=O)C2CC2)cc1Nc1cccc(-c2nc(CNC(=O)CN)no2)c1OC` [Example 155] the value was 780 nM. For the compound `[2H]C([2H])([2H])NC(=O)c1nnc(NC(=O)C2CC2)cc1Nc1cccc(-c2ncc(C(=O)N3CCC3C)s2)c1OC` (stereo not shown) [Example 328], for the setting “Homo sapiens”, the IC50 turned out to be 160 nM. As to `[2H]C([2H])([2H])NC(=O)c1nnc(NC(=O)C2CC2)cc1Nc1cccc(-c2nc(CN3CC4CNCC4C3)no2)c1OC` (stereo not shown) [Example 232], the IC50 (Homo sapiens) is 6510 nM.
